Data reported in ChEMBL document CHEMBL1201862, “PubChem BioAssay data set” (2004).
Where a name gives a salt, the structure may show the parent alone. Active and inactive are the calls of the source.

How the values were obtained:
[1] = target: Glucose-6-phosphate 1-dehydrogenase (Homo sapiens, UniProt P11413); test: inhibition of Homo sapiens G6PD, dose series – biochemical, fluorescence, selectivity assay for P. falciparum G6PD inhibitor project, dose response (AID 504792); type: functional
Escherichia coli [2] = test: microbe, parasite or virus in culture
CAAX prenyl protease 2 [3] = target: CAAX prenyl protease 2 (Homo sapiens, UniProt Q9Y256); test: inhibition of Ras-converting CAAX protease Rce1 – biochemical, yeast membranes, quenched-peptide fluorescence, cherry-pick, dose response (AID 588849)
CAAX prenyl protease 2 [4] = target: T1, CAAX prenyl protease 2 (Saccharomyces cerevisiae S288c, UniProt Q03530); type: biochemical
T1 sequence (Q03530 whole entry): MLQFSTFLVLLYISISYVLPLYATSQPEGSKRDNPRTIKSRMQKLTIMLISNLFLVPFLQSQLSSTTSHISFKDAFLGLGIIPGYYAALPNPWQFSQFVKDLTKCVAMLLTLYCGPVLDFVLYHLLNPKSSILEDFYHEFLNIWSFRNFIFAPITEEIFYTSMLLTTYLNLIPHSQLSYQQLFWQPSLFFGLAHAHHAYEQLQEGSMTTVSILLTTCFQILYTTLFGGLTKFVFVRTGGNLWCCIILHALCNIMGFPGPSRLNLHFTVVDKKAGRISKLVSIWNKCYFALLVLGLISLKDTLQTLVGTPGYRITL

Trypsin = Trypsin (Sus scrofa, UniProt P00761); test: trypsin protease activity blockade – biochemical, quenched peptide fluorescence, cherry-pick, selectivity assay for Rce1 protease inhibitor project, dose response (AID 488789)
[5] = HGIII-sPLA2 enzyme inhibition potency – biochemical, QFRET, IC50, dose response (AID 743457);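 also: green fluorescence rise as the enzyme cleaves BODIPY PC-A2 in liposomes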
Vero [6] = test: cells; type: functional; settings: Chlorocebus sabaeus
Vero [7] = test: cells; type: functional, cell-based; settings: Chlorocebus sabaeus
[8] = target: T2, Short transient receptor potential channel 4 (Mus musculus, UniProt Q9QUQ5); test: calcium entry via TRPC4 opening agents – cell-based, HEK293 TRPC4/mu-opioid, Fluo-4 calcium, dose response (AID 434937); type: functional
T2 sequence (Q9QUQ5 whole entry): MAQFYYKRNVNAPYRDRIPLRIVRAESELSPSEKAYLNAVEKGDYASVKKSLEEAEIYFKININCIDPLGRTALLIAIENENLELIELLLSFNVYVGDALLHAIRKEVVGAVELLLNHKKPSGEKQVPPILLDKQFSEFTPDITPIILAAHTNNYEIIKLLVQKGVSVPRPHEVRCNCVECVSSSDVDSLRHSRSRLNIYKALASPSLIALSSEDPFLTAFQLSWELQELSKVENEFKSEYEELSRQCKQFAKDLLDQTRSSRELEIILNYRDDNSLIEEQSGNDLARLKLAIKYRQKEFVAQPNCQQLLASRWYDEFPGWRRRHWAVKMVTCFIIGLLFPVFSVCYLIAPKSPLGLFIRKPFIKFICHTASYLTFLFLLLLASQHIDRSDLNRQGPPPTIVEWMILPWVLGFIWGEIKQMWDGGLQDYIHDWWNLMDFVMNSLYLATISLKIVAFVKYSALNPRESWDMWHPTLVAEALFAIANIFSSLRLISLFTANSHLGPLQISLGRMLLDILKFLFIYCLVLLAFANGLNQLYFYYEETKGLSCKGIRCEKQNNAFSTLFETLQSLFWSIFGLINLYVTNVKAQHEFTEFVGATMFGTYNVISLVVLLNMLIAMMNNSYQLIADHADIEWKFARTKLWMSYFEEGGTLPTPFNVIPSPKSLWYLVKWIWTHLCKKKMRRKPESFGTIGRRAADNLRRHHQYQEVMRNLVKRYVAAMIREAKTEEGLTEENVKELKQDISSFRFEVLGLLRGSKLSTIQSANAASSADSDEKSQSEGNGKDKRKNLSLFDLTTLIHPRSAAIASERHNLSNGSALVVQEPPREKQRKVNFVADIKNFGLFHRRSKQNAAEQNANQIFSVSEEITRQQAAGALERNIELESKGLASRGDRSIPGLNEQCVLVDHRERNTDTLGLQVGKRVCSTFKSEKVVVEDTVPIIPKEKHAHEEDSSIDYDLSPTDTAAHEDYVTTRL

Escherichia coli [9] = test: microbe, parasite or virus in culture; remark: listed apart in the source
[10] = viability loss of HMLE_sh_eGFP cells – cell-based, luminescence, counter-screen for HMLE_sh_ECad selective toxicity project, dose response (AID 463074); type: functional, Homo sapiens;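 also: HMLE human mammary epithelial cells expressing control shRNA against eGFP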
[11] = Luminescence Cell-Based Dose Retest to Confirm Inhibitors of Cancer Stem Cells. [Related pubchem assays (depositor defined):AID2717, AID2721]; type: functional; settings: Homo sapiens
[12] = target: T3, Nuclear receptor subfamily 0 group B member 1 (Homo sapiens, UniProt P51843); test: Luminescence-based cell-based high throughput dose response assay for inhibitors of the orphan nuclear receptor subfamily 0, group B, member 1 (DAX1; NR0B1). [Related pubchem assays (depositor defined):AID504766, AID504790]; type: functional
T3 sequence (P51843 whole entry): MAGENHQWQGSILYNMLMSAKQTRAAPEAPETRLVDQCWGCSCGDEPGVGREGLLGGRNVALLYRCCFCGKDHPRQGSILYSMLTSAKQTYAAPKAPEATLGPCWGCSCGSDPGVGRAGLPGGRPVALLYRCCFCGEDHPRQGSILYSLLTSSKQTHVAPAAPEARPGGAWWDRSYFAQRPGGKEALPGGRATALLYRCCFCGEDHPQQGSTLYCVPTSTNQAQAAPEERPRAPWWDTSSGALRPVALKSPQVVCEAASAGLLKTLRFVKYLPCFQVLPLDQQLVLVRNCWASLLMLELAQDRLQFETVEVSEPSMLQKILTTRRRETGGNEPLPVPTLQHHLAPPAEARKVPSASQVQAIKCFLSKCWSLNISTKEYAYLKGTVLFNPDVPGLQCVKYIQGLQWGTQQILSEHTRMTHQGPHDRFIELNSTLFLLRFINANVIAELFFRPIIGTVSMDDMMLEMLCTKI

HEK293 = test: cells; type: functional, cell-based; settings: Homo sapiens
[13] = target: T4, E3 ubiquitin-protein ligase XIAP (Homo sapiens, UniProt P98170); test: Counter Screen using XIAP-Bir3 for Chemical Antagonists of Bir1/2 domains of IAP-family anti-apoptotic proteins. [Related pubchem assays (depositor defined):AID1018, AID1449, AID1514, AID1638, AID1749, AID1750, AID488957, AID488963]
[14] = target: Glyceraldehyde-3-phosphate dehydrogenase (Homo sapiens, UniProt P04406)
[15] = target: T4, E3 ubiquitin-protein ligase XIAP; test: small molecules displacing peptide from XIAP – biochemical, IAP family, fluorescence polarization (AID 1018); type: functional
[16] = target: T5, Tyrosine-protein phosphatase non-receptor type 7 (Homo sapiens, UniProt P35236); type: functional
T5 sequence (P35236 whole entry): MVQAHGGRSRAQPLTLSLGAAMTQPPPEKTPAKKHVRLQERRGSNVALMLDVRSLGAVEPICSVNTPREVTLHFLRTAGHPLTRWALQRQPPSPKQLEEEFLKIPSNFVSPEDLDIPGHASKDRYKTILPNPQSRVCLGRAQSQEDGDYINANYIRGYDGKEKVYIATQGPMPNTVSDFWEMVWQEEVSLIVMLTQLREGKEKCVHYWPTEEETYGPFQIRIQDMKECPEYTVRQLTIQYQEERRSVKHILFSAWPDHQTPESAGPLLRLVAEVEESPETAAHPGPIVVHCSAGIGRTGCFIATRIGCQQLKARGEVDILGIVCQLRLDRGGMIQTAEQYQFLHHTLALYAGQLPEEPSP

[17] = target: T6, Dual specificity protein phosphatase 6 (Rattus norvegicus, UniProt Q64346)
T6 sequence (Q64346 whole entry): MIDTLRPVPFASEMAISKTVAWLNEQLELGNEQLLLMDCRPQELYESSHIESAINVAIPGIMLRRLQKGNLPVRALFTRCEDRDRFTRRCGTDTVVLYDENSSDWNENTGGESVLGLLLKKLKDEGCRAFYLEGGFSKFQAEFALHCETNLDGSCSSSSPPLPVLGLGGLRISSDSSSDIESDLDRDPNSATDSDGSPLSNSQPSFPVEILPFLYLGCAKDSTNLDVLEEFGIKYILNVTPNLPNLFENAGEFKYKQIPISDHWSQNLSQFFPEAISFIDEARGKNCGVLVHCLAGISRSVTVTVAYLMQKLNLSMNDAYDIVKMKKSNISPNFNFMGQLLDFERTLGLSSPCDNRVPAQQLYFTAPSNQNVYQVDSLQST

[18] = target: T6, Dual specificity protein phosphatase 6; type: functional
[19] = target: 1-phosphatidylinositol 4,5-bisphosphate phosphodiesterase gamma-1 (Homo sapiens, UniProt P19174); test: Counterscreen for inhibitors of phospholipase C isozymes (PLC-B3): Fluorescence-based biochemical high throughput dose response assay to identify inhibitors of phospholipase C isozymes (PLC-gamma1).
[20] = test system: Streptococcus sp. 'group A'; test: Streptococcus pyogenes SK(-)GAS viability under kanamycin – luminescence, BacTiterGlo, confirmation, counter-screen for streptokinase expression inhibitor project, dose response (AID 1900); type: functional, organism-based
[21] = mitochondrial function rescue without frataxin homolog – Friedreich's ataxia, plus single-dose screen, dose response (AID 1465); type: functional;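 also: yeast depleted of Yfh1p frataxin homolog grown on glycerol needing respiration; WST-1 tetrazolium dye reduction as measure of cellular dehydrogenase metabolic activity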
Streptococcus = test: GAS UMAA2166 growth inhibition – luminescence, BacTiterGlo, counter-screen for streptokinase expression inhibitor project, dose response (AID 1915); type: functional, organism-based;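 also: potency for reduction of bacterial viability or growth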
NS3 = NS3 (Hepatitis C virus, UniProt A3EZJ3); test: PubChem AID 2173; design: species or system Hepacivirus hominis
[22] = target: T7, Rac GTPase-activating protein 1 (Homo sapiens, UniProt Q9H0H5); test: blockers of MgcRacGAP-driven Rac1 GTP hydrolysis – biochemical, ADP Hunter fluorescence, primary and confirmatory, confirmation (AID 624330); type: functional
T7 sequence (Q9H0H5 whole entry): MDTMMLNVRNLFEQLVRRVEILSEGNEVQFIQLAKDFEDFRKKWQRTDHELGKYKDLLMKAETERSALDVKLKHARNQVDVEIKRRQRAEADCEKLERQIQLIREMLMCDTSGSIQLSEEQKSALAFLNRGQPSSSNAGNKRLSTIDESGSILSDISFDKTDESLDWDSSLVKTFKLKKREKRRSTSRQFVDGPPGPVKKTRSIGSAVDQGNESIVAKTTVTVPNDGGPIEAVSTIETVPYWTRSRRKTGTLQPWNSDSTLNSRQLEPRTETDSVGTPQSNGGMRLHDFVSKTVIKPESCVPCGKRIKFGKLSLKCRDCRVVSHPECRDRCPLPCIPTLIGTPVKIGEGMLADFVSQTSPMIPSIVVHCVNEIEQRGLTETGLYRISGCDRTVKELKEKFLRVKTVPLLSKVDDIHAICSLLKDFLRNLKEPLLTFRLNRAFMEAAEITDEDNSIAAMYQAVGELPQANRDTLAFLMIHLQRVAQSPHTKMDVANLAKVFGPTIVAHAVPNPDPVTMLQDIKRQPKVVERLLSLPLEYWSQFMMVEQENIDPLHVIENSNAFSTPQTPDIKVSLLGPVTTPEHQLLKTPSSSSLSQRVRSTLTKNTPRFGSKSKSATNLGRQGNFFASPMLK

[23] = target: 1-phosphatidylinositol 4,5-bisphosphate phosphodiesterase beta-3 (Homo sapiens, UniProt Q01970); test: Fluorescence-based biochemical high throughput dose response assay to identify inhibitors of phospholipase C isozymes (PLC-B3).
1-phosphatidylinositol 4,5-bisphosphate phosphodiesterase beta-3, sequence (Q01970 whole entry): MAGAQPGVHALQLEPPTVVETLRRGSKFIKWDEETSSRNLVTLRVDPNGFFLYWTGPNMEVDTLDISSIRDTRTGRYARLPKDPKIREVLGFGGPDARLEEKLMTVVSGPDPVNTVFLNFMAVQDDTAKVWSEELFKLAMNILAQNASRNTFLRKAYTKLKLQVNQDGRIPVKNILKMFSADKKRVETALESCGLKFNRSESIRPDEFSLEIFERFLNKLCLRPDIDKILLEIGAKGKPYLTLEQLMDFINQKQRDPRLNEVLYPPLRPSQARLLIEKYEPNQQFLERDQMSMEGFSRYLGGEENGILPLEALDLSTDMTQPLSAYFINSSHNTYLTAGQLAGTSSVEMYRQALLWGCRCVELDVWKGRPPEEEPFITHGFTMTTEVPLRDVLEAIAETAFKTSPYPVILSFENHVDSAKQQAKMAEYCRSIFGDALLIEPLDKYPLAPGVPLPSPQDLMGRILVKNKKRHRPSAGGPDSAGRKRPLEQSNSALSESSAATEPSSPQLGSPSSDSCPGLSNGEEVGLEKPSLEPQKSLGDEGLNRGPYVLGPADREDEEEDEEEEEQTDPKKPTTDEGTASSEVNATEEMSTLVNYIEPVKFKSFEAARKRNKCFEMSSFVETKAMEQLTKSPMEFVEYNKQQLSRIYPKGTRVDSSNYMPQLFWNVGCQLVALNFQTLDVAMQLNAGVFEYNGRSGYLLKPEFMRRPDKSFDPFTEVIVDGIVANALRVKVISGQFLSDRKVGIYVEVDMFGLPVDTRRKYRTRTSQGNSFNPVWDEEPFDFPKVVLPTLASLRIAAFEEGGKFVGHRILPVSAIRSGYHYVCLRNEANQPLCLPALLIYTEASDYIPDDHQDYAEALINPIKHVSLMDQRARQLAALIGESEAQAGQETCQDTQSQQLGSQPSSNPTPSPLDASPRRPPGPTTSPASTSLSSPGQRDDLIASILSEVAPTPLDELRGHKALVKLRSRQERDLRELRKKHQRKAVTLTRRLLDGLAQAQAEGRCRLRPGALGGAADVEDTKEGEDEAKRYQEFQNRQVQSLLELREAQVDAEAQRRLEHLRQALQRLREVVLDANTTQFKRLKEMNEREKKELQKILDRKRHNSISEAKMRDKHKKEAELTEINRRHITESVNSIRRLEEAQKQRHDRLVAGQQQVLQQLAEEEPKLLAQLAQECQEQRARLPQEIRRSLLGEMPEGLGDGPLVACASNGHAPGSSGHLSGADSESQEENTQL

T4 sequence (P98170 whole entry): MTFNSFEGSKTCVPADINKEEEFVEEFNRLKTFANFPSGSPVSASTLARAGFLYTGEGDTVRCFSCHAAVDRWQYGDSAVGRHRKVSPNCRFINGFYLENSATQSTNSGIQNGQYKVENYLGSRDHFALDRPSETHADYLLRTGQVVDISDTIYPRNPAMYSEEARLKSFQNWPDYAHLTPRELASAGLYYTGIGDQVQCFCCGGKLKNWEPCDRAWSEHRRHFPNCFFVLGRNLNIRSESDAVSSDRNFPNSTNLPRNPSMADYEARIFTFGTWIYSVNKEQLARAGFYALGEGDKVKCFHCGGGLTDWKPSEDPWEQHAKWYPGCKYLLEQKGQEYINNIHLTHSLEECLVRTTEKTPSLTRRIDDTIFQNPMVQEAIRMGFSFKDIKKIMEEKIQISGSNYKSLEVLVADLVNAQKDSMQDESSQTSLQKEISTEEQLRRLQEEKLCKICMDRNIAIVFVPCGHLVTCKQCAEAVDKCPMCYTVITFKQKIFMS
NS3, sequence (A3EZJ3 whole entry): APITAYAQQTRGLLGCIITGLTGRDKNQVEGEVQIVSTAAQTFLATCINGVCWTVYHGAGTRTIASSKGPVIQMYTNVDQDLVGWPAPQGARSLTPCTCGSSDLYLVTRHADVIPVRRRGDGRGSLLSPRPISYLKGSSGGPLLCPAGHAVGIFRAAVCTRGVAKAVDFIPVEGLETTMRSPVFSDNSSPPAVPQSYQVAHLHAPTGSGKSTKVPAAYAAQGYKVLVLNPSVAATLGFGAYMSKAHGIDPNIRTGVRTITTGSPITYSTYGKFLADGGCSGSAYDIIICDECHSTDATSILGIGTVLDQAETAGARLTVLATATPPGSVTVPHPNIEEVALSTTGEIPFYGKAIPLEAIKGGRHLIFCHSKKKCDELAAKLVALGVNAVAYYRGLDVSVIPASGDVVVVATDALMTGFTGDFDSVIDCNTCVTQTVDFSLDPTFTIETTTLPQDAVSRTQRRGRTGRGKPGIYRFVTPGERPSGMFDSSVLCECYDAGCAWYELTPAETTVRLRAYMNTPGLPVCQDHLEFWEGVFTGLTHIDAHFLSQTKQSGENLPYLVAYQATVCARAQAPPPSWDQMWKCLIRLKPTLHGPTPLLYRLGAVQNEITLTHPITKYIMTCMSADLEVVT
1-phosphatidylinositol 4,5-bisphosphate phosphodiesterase gamma-1, sequence (P19174 whole entry): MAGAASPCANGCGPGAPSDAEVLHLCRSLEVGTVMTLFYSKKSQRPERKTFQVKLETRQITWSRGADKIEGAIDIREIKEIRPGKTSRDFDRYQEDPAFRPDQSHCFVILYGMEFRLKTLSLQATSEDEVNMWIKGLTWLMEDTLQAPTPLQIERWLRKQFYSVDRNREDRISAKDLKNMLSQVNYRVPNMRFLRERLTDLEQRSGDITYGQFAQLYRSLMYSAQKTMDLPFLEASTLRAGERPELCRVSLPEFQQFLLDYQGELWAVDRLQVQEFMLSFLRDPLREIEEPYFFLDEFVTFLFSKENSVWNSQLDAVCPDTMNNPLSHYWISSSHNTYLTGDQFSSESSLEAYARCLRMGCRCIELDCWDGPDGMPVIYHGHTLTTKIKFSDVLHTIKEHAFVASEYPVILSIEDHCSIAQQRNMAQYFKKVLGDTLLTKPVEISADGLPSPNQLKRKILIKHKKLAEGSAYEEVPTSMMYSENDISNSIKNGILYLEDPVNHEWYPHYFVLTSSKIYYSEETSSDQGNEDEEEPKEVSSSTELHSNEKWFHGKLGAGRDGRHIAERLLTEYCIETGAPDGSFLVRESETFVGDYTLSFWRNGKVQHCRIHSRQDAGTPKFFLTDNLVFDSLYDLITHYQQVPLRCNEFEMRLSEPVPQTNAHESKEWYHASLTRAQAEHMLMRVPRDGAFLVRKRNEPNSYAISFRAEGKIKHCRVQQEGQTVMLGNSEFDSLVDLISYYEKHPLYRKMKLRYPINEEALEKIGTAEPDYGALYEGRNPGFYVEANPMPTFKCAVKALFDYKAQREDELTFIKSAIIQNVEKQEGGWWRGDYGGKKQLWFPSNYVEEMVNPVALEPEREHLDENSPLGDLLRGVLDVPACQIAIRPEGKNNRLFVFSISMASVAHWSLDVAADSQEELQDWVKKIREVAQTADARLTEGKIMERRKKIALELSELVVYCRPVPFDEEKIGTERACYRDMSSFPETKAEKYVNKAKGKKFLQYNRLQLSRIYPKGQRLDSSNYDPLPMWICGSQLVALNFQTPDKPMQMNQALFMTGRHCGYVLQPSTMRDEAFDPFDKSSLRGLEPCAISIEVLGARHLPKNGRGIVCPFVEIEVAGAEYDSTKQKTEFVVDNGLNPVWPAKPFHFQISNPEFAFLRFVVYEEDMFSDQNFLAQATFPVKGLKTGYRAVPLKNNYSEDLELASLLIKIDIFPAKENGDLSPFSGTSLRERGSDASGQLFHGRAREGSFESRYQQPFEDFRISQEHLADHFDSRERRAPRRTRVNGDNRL
Glyceraldehyde-3-phosphate dehydrogenase, sequence (P04406 whole entry): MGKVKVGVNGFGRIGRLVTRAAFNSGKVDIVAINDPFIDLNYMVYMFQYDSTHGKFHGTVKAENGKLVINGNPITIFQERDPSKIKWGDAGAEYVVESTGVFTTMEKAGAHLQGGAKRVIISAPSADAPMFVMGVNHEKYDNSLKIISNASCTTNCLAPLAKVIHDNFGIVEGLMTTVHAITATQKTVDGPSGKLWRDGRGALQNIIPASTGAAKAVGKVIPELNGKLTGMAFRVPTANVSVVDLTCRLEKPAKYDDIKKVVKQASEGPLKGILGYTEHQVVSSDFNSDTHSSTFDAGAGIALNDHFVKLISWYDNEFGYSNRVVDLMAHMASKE
CAAX prenyl protease 2 (Homo sapiens, UniProt Q9Y256), sequence (Q9Y256 whole entry): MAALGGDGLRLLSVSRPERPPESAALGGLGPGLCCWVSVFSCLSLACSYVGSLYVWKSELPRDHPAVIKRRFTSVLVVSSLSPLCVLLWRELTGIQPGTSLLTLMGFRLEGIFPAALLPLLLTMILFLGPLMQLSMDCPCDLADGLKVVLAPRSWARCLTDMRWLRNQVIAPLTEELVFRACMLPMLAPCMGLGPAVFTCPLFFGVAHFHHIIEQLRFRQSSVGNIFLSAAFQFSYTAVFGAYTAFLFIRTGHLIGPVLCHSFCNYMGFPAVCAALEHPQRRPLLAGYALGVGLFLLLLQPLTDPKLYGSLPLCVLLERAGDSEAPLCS
Trypsin, sequence (P00761 whole entry): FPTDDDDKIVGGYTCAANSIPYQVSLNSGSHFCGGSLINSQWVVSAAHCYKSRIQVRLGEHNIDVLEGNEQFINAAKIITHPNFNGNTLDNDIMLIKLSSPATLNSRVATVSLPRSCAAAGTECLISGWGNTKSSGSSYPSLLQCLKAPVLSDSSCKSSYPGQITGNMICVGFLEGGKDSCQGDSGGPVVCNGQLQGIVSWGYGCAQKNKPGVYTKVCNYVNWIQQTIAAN

## C=CCOc1c(Cl)cc(CNc2ccc3[nH]c(O)nc3c2)cc1OC
[1]
  IC50: > 80 µM (inactive)

## Cc1ccc(-c2[nH]nc3c2C(c2ccccc2)N(c2ccc(C(=O)O)cc2)C3=O)cc1 (configuration not stated)
Escherichia coli [2]
  AC50: 35.3 µM (active)

## CCOc1ccc(S(=O)(=O)Nc2cc(OC)c(OC)cc2C(=O)O)cc1
CAAX prenyl protease 2 [3]
  AC50: 4.23 µM (active)
CAAX prenyl protease 2 [4]
  AC50: 9.8 µM (active)
Trypsin
  AC50: 7.53 µM (active)

## COc1ccc(C(=O)NC(=S)NNC(=O)c2cccc(C)c2)cc1
[5]
  IC50: 75.7 µM (inactive)
Vero [6]
  CC50: > 25 µM (active)
Vero [7]
  IC50: 23.7 µM (active)
[8]
  EC50: 3.35 µM (active)

## C/C=C(/C)C(=O)Nc1cccc(C2=NOC3(C2)C[C@H](C(N)=O)N(C(=O)c2ccc(Cl)cc2)C3)c1 (some centres not stated)
Escherichia coli [9]
  AC50: 48 µM (active)

## Cc1ccc(P(=S)(c2ccc(C)o2)N2CCOCC2)o1
[10]
  AC50: 78.2 µM (active)
[11]
  AC50: > 195 µM (inactive)

## Cn1c(C(=O)N2CCCC(C(=O)NCCCSC3CCCCC3)C2)cc2sccc21 (configuration not stated)
[10]
  AC50: 21.6 µM (active)
[11]
  AC50: 5.7 µM (active)

## Cc1ccc2nc(-c3ccc(NC(=S)NCC(C)(C)CN(C)C)cc3)sc2c1
Vero [7]
  IC50: 15.4 µM (active)
[12]
  IC50: > 67.5 µM (inactive)
HEK293
  IC50: > 67.5 µM (inactive)

## O=C(O)[C@@H](O)c1ccccc1
[13]
  IC50: > 100 µM (inactive)
[14]
  IC50: > 100 µM (not active)
[15]
  IC50: > 100 µM (not active)
[16]
  IC50: > 100 µM (not active)
[17]
  IC50: > 100 µM (inactive)
[18]
  IC50: > 100 µM (inactive)

## C=C1c2cccc(O)c2C(=O)C2=C(O)[C@]3(O)C(=O)C(C(N)=O)=C(O)[C@@H](N(C)C)[C@@H]3[C@@H](O)[C@H]12 [METHACYCLINE HYDROCHLORIDE]
[19]
  IC50: > 122 µM (inactive)
Escherichia coli [9]
  AC50: 0.707 µM (active)
[20]
  EC50: 0.099 µM (active)
[21]
  EC50: > 100 µM (active)
Streptococcus
  EC50: 0.109 µM (active)
NS3
  IC50: > 109 µM (not active)
[22]
  IC50: 66.8 µM (active)
[23]
  IC50: > 122 µM (inactive)
Escherichia coli [2]
  AC50: 29.5 µM (active)
